These results are taken from PubChem BioAssay AID1845206 (Molecular Pharmacology Branch, DTP, NCI, 2023).

This test has as its system NCI-H1618 multicellular tumor spheroid viability. As to the kind of experiment: Anticancer human tumor NCI-H1618 cell line growth inhibition.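 On all read-outs here: spheroids exposed to agents for 7 days.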 Particulars: for viability, T/C: stronger effect = lower value. From the text:
Multicellular complex tumor spheroid response to DNA repair inhibitors in combination with DNA-damaging drugs
This study explores the anticancer activities of DNA-damaging drugs and inhibitors of DNA damage repair, both as single agents and in combinations. Complex tumor spheroids comprised of malignant cells, endothelial cells and mesenchymal stem cells served as an in vitro model for human solid tumors. This model system incorporates physiologically relevant features and patient-derived or established malignant cell lines with clinically relevant genetic alterations from many tumor types. Twenty-six patient-derived or established malignant cell lines were evaluated representing sarcoma, melanoma, small cell lung cancer (SCLC), non-small cell lung cancer (NSCLC), as well as bladder, ovarian and pancreatic cancers. The concentration ranges selected for each drug and investigational agent were based upon clinically achievable concentrations if the clinical Cmax of the agent was known.
Compounds. The drugs and compounds olaparib (NSC753686), talazoparib (NSC767125), berzosertib (NSC777718), elimusertib (NSC800525), nedisertib (NSC802822), VX-984 (NSC792969), AZD-1390 (NSC803789), temozolomide (NSC362856), topotecan (NSC609699), trabectedin (NSC813783), staurosporine (NSC755774), and gemcitabine (NSC613327) were obtained from the National Cancer Institute (NCI) Developmental Therapeutics Program Chemical Repository. The FDA-approved anticancer drug set is available from the Developmental Therapeutics Program at https://dtp.cancer.gov/organization/dscb/obtaining/available_plates.htm. […] The stock solutions were prepared in dimethyl sulfoxide (DMSO, Sigma-Aldrich, St. Louis, MO, cat. D2650) at 400-fold the tested concentration and stored at -70 degrees C. Prior to their use, the stock solutions were diluted in fresh medium and the final DMSO concentration in the assay was 0.25% (v/v). All drugs and investigational agents were tested over a range starting from a high concentration at or near the clinical Cmax and decreasing in half-log increments. If the clinical Cmax for an agent had not been determined, the highest concentration tested was 10 microM.
Cell Lines. The patient-derived cancer cell (PDC) lines: 156681-154-R-J1-PDC, 283228-195-R-J1-PDC, 287954-098-R-J1-PDC, 292921-168-R-J2-PDC, 349418-098-R-PDC, 425362-245-T-J1-PDC, 556581-035-R-J1-PDC, and BL0293-F563-PDC were received from the NCI Patient-Derived Models Repository (PDMR, https://pdmr.cancer.gov). The established cell lines HS-SY-2 (RRID:CVCL_8719), MPNST, and SYO-1 (RRID:CVCL_7146) were obtained from the Sloan Kettering Institute. The alveolar soft parts sarcoma cell line ASPS-1 (RRID:CVCL_S738) was established at the NCI and grown from internal seed stocks. The following established cell lines were purchased from the American Type Culture Collection (ATCC, Manassas, VA): G-401 (ATCC, cat. CRL-1441, RRID:CVCL_0270), SW982 (ATCC, cat. HTB-93, RRID:CVCL_1734), VA-ES-BJ (ATCC, cat. CRL-2138, RRID:CVCL_1785), NCI-H719 (ATCC, cat. CRL-5837, RRID:CVCL_1582), NCI-H196 (ATCC, cat. CRL-5823, RRID:CVCL_1509), NCI-H841 (ATCC, cat. CRL-5845, RRID:CVCL_1595), NCI-H1618 (ATCC, cat. CRL-5879, RRID:CVCL_1480), NCI-H1876 (ATCC, cat. CRL-5902, RRID:CVCL_1503), DMS 114 (ATCC, cat. CRL-2066; RRID:CVCL_1174), NCI-H211 (ATCC, cat. CRL-5824; RRID:CVCL_1529), and SW 1271 (ATCC, cat. CRL-2177, RRID:CVCL_1716). The small cell lung cancer cell line COR-L88 was purchased from Sigma-Aldrich (cat. 92031917-1VL, RRID:CVCL_1141). The non-small cell lung cancer cell lines NCI-H226 (RRID:CVCL_1544) and NCI-H322M (RRID:CVCL_1557) were established at the NCI and grown from internal seed stocks. Pooled donor human umbilical vein endothelial cells (HUVEC, Lonza, cat. CC-2519) and human mesenchymal stem cells (hMSC, Lonza, cat. PT-2501) were purchased from Lonza (Walkersville, MD).
Cell Culture. All cells were maintained in an incubator at 37 degrees C and 5% CO2 with 95% humidity. […]

“And” between values parts separate entries of the source, which are not always exact repeats. Equal entries are not always repeated. The source made the active and inactive calls. How the source made its calls: active means viability on the fitted dose curve at most 10% of control; inactive means the rest. Bounds are passed on as bounds.

For the compound `CC(C)n1c(=O)n(C)c2cnc3cc(F)c(-c4ccc(OCCCN5CCCCC5)nc4)cc3c21`, the viability, T/C was 92.6% and 97.3% and 82.8% (compound 0.0316 µM); 93.1% and 105% (compound 0.1 µM); 85.2% and 96.6% and 100% (compound 0.316 µM); 80.8% and 86.8% (compound 1 µM); 75.5% and 87.7% and 75.1% (compound 3.16 µM); 58.1% and 89.4% and 54.3% (compound 10 µM). The outcome (compound 0.1 µM) was inactive and the result (compound 1 µM) was inactive. Besides, the IC50 (curve of compound) is over 10000 nM.

Consider `CC1COCCN1c1cc(-c2ccnn2C)c2ccnc(-c3ccn[nH]3)c2n1` (stereo not given), for which the viability, T/C is, setting by setting: (compound 0.0316 µM) 66.6% and 84.9% and 71.4%; (compound 0.1 µM) 36.7% and 35.1% and 32.9%; (compound 0.316 µM) 5.46% and 8.95% and 25.5%; (compound 1 µM) 1.99% and 2.55% and 7.57%; (compound 3.16 µM) 1.12% and 1.22% and 2.57%; (compound 10 µM) 2.74% and 1.68% and 1.22%. Besides, the IC50 (curve of compound) is 60 nM and 70.9 nM and 64.3 nM.

On to `CC[C@@]1(O)C(=O)OCc2c1cc1n(c2=O)Cc2cc3c(CN(C)C)c(O)ccc3nc2-1`, for which the viability, T/C (compound 0.3 µM) was 1.94% [middle of 9 runs]. Besides, the IC50 (compound alone, run of 11/07/2019) was 9.37 nM [middle of 5 runs].

In the case of `CNCc1ccc(-c2cc(-c3nc(-c4ccc(S(=O)(=O)C(C)C)cc4)cnc3N)on2)cc1`, the viability, T/C is 97.2% and 99.1% and 104% (compound 0.00949 µM); 96.2% and 99.4% and 112% (compound 0.03 µM); 25.7% and 95.3% and 102% (compound 0.0949 µM); 25.8% and 85.3% and 90% (compound 0.3 µM); 18.8% and 21.5% and 11.7% (compound 0.949 µM); 20.3% and 0.47% and 4.41% (compound 3 µM). Also, for the setting “curve of compound”, the IC50 was 63.8 nM and 567 nM and 540 nM.

Take `COc1cc(C)[nH]c(=O)c1CN1CCc2c(Cl)cc(C(OC)C3COC3)c(Cl)c2C1=O` (stereo not given): the viability, T/C (compound 0.0316 µM) is 83.9% and 102% and 58.1%; the viability, T/C (compound 0.1 µM) is 77.3% and 49.4%; the viability, T/C (compound 0.316 µM) is 67.3% and 73.7%; the viability, T/C (compound 1 µM) is 76.1% and 83% and 91.4%; the viability, T/C (compound 3.16 µM) is 69% and 82.6% and 93.8%; the viability, T/C (compound 10 µM) was 65.9% and 85.6% and 65.3%. The outcome was “inactive” (compound 0.1 µM) and “inactive” (compound 0.316 µM). Where the note is “curve of compound”, the IC50 is over 10000 nM.

Turning to `COc1cc2c(cc1O)CCNC21CSC2c3c(OC(C)=O)c(C)c4c(c3C(COC1=O)N1C(O)C3Cc5cc(C)c(OC)c(O)c5C(C21)N3C)OCO4` (stereo not given), the viability, T/C runs as follows: (compound 30 pM) 95.9% [middle of 10 runs]; (compound 0.0003 µM) 5.95% [middle of 10 runs]; (compound 0.000949 µM) 3.52% [middle of 10 runs]; (compound 0.003 µM) 2.99% [middle of 10 runs]. In addition, the IC50 (compound alone, run of 12/16/2019) is 0.124 nM [middle of 9 runs].

In the case of `COc1ccc([C@@H](O)c2cc(-c3ncnc4cc(N5CCOCC5)ccc34)c(F)cc2Cl)nn1`, the viability, T/C by setting is: (compound 0.0316 µM) 84% and 103% and 101%; (compound 0.1 µM) 109% and 97.9% and 84.5%; (compound 0.316 µM) 108% and 103% and 83.4%; (compound 1 µM) 98.4% and 98.8% and 76%; (compound 3.16 µM) 84.1% and 83% and 83.7%; (compound 10 µM) 22.8% and 78.7% and 32.8%. Besides, the IC50 (curve of compound) is 6000 nM and > 10000 nM and 6750 nM.

Take `Cc1cc(C)c(CNC(=O)c2cc(-c3ccc(CN4CCOCC4)cc3)cc3c2cnn3C2CCCC2)c(=O)[nH]1`: the viability, T/C was 90.5% and 97.2% and 101% (compound 0.0316 µM); 103% and 101% and 107% (compound 0.1 µM); 89.7% and 98.2% and 101% (compound 0.316 µM); 94.6% and 94.8% and 99% (compound 1 µM); 89% and 95.3% and 95.9% (compound 3.16 µM); 76.2% and 95.1% and 88.9% (compound 10 µM). For the same compound, the IC50 (curve of compound) is over 10000 nM.

For `Cc1sc2c(c1C)C(c1ccc(Cl)cc1)=NC(CC(=O)Nc1ccc(O)cc1)c1nnc(C)n1-2` (stereo not given), the viability, T/C is 109% (2×) and 110% (compound 0.00949 µM); 105% and 108% and 115% (compound 0.03 µM); 100% (compound 0.0949 µM); 102% and 95.7% and 56.4% (compound 0.3 µM); 91.1% and 80.5% and 47% (compound 0.949 µM); 33.8% and 35.4% and 16.8% (compound 3 µM). For the same compound, the outcome (compound 0.0949 µM) was inactive. For the same compound, the 50% inhibitory concentration (IC50) (curve of compound) is 2160 nM and 2060 nM and 567 nM.

As to `Cn1ncnc1[C@H]1c2n[nH]c(=O)c3cc(F)cc(c23)N[C@@H]1c1ccc(F)cc1`, the viability, T/C by setting is: (compound 0.00949 µM) 92.2% and 26.7% and 101%; (compound 0.03 µM) 91.8% and 23.5% and 84.8%; (compound 0.0949 µM) 88.2% and 22.8% and 79.8%; (compound 0.3 µM) 13.2% and 5.31% and 10.7%; (compound 0.949 µM) 1.9% and 23.1% and 3.83%; (compound 3 µM) 1.81% and 2.3% and 3.2%.

Turning to `Cn1nnc2c(C(N)=O)ncn2c1=O`, the viability, T/C was 19.8% [middle of 10 runs] (compound 3.16 µM), 5.8% [middle of 10 runs] (compound 10 µM) and 10.4% [middle of 10 runs] (compound 31.6 µM).

On to `O=C(c1cc(Cc2n[nH]c(=O)c3ccccc23)ccc1F)N1CCN(C(=O)C2CC2)CC1`, for which the viability, T/C is 98.1% and 105% and 94.9% (compound 0.0949 µM); 103% and 90.6% (compound 0.3 µM); 83.7% and 96.2% and 98.8% (compound 0.949 µM); 23.2% and 98.6% and 91% (compound 3 µM); 23.5% and 56.3% and 34.1% (compound 9.49 µM); 25% and 3.78% and 9.4% (compound 30 µM). Further, the outcome (compound 0.3 µM) was inactive. Further, where the note is “curve of compound”, the IC50 was 1820 nM and 10900 nM and 6890 nM.

With `[2H]c1nc(C)nc([2H])c1-c1cc(NC[C@@H](C)c2cccc3c(C(=O)NC)ccnc23)ncn1`, the viability, T/C reads like this: (compound 0.0316 µM) 97% and 100% and 12.9%; (compound 0.1 µM) 98.5% and 98% and 8.24%; (compound 0.316 µM) 101% and 117%; (compound 1 µM) 96.4% and 101% and 142%; (compound 3.16 µM) 88.6% and 94% and 106%; (compound 10 µM) 97.2% and 102% and 91.8%. For the same compound, for the setting “compound 0.316 µM”, the result was inactive.

What is called viability, T/C is the ratio of treated to control. A word on the IC50: it is the midpoint of a concentration-inhibition curve.
